Like-named read-outs stand apart in the source and are kept apart here.
How the values were obtained:
human CHRM2 (M2) = target: T1, human CHRM2 (M2) (Homo sapiens, UniProt P08172); assay: Eurofins CEREP panel, M2; assay type: binding; conditions: M2 (h) (antagonist radioligand), test compound concentration 10 uM
T1 construct: purchased Eurofins Cerep (SafetyScreen44), recognised from the panel format
T1 sequence (P08172 1-466): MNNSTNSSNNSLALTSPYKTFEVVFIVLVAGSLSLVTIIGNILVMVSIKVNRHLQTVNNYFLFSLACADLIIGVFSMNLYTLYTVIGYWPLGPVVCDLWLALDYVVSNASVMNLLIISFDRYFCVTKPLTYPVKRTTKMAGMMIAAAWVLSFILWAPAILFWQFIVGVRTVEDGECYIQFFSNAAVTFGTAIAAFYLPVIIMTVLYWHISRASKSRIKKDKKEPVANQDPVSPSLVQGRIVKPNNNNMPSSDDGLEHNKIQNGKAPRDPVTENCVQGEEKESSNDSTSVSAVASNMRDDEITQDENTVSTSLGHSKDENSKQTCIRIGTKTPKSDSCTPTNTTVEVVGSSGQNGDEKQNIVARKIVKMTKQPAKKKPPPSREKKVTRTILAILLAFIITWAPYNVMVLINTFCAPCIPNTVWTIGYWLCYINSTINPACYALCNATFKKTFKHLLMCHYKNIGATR

A2A (h) = target: T2, A2A (h) (Homo sapiens, UniProt P29274); assay: In vitro CEREP profiling, A2A (h) (agonist radioligand); assay type: binding; conditions: test compound 10 uM
T2 construct: purchased Eurofins Cerep (SafetyScreen44), recognised from the panel format
T2 sequence (P29274 whole entry): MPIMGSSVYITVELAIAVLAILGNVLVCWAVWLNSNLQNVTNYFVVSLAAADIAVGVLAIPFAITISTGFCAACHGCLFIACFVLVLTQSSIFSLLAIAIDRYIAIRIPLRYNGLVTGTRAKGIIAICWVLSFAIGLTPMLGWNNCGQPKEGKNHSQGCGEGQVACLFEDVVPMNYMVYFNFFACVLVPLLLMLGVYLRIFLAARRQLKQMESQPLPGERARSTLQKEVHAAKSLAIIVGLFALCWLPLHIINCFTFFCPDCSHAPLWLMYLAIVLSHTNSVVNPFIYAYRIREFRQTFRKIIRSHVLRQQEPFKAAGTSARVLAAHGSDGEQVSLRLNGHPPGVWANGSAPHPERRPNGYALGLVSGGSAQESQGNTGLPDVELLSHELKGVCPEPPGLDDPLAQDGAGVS
Text: (§1) Supplement media-1.zip/Safety_Panel_Profile.csv, table | column: perc_inhibition

5-HT2B (h) = target: T3, 5-HT2B (h) (Homo sapiens, UniProt P41595); assay: In vitro CEREP profiling, 5-HT2B (h) (agonist radioligand); assay type: binding; conditions: test compound concentration 10 uM
T3 construct: purchased Eurofins Cerep (SafetyScreen44), recognised from the panel format
T3 sequence (P41595 whole entry): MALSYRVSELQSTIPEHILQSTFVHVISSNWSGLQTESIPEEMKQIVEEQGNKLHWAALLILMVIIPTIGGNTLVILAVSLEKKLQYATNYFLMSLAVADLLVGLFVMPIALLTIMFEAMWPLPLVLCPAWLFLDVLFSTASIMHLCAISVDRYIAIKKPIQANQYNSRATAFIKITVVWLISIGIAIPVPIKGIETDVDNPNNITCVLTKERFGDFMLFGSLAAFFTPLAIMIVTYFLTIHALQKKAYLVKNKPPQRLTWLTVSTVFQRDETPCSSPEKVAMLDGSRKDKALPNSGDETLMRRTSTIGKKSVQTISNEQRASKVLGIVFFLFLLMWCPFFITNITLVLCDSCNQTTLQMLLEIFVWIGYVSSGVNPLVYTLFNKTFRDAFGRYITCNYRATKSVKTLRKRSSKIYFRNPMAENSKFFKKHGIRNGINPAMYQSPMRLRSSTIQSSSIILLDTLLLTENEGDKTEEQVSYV
Text: as §1

M1 (h) = target: T4, M1 (h) (Homo sapiens, UniProt P11229); assay: In vitro CEREP profiling, M1 (h) (antagonist radioligand); assay type: binding; conditions: test compound concentration 10 uM
T4 construct: purchased Eurofins Cerep (SafetyScreen44), recognised from the panel format
T4 sequence (P11229 1-460): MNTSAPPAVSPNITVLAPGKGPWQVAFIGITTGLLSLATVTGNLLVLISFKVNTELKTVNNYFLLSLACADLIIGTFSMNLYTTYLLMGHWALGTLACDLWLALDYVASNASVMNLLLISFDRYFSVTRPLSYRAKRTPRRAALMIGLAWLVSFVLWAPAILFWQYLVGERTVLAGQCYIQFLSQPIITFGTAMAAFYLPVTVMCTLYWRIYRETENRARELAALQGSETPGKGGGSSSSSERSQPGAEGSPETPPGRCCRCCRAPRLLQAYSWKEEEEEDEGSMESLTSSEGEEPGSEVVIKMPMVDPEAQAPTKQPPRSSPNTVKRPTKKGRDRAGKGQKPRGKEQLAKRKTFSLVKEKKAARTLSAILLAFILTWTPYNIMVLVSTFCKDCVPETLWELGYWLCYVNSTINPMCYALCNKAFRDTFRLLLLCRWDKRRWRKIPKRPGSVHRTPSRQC
Text: as §1

GR (h) = target: T5, GR (h) (Homo sapiens, UniProt P04150); assay: In vitro CEREP profiling, GR (h) (agonist radioligand); assay type: binding; conditions: test compound concentration 10 uM
T5 construct: purchased Eurofins Cerep (SafetyScreen44), recognised from the panel format
T5 sequence (P04150 1-777): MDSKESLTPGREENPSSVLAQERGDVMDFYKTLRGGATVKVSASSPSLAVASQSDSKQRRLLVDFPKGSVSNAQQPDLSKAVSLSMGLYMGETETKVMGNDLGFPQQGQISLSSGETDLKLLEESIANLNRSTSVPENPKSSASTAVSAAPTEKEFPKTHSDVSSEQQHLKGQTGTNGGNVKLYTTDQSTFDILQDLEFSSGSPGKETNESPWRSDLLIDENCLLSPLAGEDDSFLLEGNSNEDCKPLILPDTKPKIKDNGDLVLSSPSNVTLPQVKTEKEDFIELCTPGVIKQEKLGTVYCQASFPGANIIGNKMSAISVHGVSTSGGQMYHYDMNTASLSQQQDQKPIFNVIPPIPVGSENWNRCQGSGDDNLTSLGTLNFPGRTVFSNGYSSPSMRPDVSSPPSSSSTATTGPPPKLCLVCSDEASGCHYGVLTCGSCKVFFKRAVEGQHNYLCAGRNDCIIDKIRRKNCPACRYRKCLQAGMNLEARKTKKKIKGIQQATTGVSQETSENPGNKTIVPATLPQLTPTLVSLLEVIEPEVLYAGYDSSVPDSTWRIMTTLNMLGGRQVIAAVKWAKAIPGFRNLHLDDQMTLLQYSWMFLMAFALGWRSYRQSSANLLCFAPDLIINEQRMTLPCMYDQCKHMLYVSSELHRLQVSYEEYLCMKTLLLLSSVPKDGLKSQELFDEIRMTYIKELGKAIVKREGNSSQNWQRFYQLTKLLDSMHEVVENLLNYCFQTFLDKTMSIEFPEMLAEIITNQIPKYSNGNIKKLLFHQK
Text: as §1

5-HT1B (h) = target: T6, 5-HT1B (h) (Homo sapiens, UniProt P28222); assay: In vitro CEREP profiling, 5-HT1B (h) (antagonist radioligand); assay type: binding; conditions: test compound concentration 10 uM
T6 construct: purchased Eurofins Cerep (SafetyScreen44), recognised from the panel format
T6 sequence (P28222 whole entry): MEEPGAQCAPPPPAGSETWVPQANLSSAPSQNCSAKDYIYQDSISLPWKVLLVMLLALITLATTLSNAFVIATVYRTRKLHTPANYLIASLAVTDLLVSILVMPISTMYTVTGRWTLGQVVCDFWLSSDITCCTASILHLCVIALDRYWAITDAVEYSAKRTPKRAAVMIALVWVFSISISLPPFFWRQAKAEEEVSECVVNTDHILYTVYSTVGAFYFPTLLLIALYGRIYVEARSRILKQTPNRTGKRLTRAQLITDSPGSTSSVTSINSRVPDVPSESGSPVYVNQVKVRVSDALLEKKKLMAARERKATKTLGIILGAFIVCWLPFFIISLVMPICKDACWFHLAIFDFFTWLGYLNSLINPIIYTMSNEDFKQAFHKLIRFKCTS
Text: as §1

DRAK1(h) = target: T7, DRAK1(h) (Homo sapiens, UniProt Q9UEE5); assay: biochemical; design: In vitro kinase panel profiling, per cent remaining kinase activity at 10 uM; conditions: atp_concentration=10, read-out: % of control remaining
T7 construct: gene STK17A
T7 sequence (Q9UEE5 1-414): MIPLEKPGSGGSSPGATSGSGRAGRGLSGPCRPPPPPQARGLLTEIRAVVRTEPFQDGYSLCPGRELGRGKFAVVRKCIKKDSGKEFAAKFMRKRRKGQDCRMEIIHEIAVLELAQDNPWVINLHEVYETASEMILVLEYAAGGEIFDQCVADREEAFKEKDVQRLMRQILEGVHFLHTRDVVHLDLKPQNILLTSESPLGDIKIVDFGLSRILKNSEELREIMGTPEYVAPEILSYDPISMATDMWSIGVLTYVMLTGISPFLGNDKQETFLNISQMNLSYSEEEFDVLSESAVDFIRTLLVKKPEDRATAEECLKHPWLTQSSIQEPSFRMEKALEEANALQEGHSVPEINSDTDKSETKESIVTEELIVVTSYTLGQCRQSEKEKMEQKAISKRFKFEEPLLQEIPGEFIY
Text: (§2) We derisk potential for off-target activity by profiling the compound in a CEREP panel, a standard secondary pharmacology assessment, as well as a kinase panel to derisk a potential hinge-binding motif in our leads, and a PARP panel to derisk activity against human […]. Reassuringly, the compounds are selective, with the only off-targets being moderate human CHRM2 and KOR receptors activity associated with ASAP-0011198.

MAPKAP-K2(h) = target: T8, MAPKAP-K2(h) (Homo sapiens, UniProt P49137); assay: biochemical; design: In vitro kinase panel profiling, per cent remaining kinase activity at 10 uM; conditions: atp_concentration=90, read-out: % of control remaining
T8 construct: gene MAPKAPK2
T8 sequence (P49137 whole entry): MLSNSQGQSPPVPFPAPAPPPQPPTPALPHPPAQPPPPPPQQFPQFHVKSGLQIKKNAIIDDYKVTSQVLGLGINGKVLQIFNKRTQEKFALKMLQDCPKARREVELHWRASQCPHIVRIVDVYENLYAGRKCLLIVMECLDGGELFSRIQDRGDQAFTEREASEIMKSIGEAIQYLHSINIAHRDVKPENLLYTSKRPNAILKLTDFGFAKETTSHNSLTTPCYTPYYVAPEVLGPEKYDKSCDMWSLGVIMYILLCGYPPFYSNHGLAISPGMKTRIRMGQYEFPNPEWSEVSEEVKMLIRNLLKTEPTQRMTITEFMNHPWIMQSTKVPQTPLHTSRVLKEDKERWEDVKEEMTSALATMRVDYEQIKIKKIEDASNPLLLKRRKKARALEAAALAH
Text: as §2

[1] = read-out: perc_inhibition (% inhibition of the binding of a ligand specific for each target)
[2] = read-out: perc_inhibition, % inhibition of the binding of a ligand specific for each target

Row | SMILES | inhibition at 10 µM (human CHRM2 (M2); [1]) | inhibition at 10 µM (A2A (h); [1]) | inhibition at 10 µM (5-HT2B (h); [2]) | inhibition at 10 µM (M1 (h); [1]) | inhibition at 10 µM (GR (h); [2]) | inhibition at 10 µM (5-HT1B (h); [1]) | remaining activity at 10 µM (DRAK1(h); batch_name=ASAP-0011446-002) | remaining activity at 10 µM (MAPKAP-K2(h); batch_name=ASAP-0011446-002) | perc_inhibition (% inhibition of the binding of a ligand specific for each target) (human CHRM2 (M2)) | perc_inhibition (% inhibition of the binding of a ligand specific for each target) (A2A (h)) | perc_inhibition (% inhibition of the binding of a ligand specific for each target) (5-HT2B (h)) | perc_inhibition (% inhibition of the binding of a ligand specific for each target) (M1 (h)) | perc_inhibition (% inhibition of the binding of a ligand specific for each target) (GR (h)) | perc_inhibition (% inhibition of the binding of a ligand specific for each target) (5-HT1B (h)) | remaining activity at 10 µM (DRAK1(h); batch_name=ASAP-0014722-002) | remaining activity at 10 µM (MAPKAP-K2(h); batch_name=ASAP-0014722-002)
1 | Cc1nn(C)cc1-c1cc2c(NC(c3ccc4c(c3)S(=O)(=O)CCC4)C(C)C)ncnc2[nH]1 (stereo not shown) [ASAP-0011446] | 5% | 13% | 43% | 11% | 7% | 15% | 111% | 110% | – | – | – | – | – | – | – | –
2 | C[C@H](C(=O)O)[C@@H](NC(=O)c1ncnc2[nH]ccc12)c1ccc(Br)cc1 [ASAP-0014722] | – | – | – | – | – | – | – | – | -4% | -14% | -4% | -1% | 3% | 1% | 98% | 98%
